Measured values taken from patent US5212157A, “Enzyme inhibitors” (Bio-Mega, Inc., priority 1989, dated 1993).
Structures can show the parent of a compound that is named as a salt. Numbered stars: 1 amine (or outer) side, 2 acyl side, 3 side chain; on linkers, the order of the positions; unused ones are H or OH. Square brackets hold non-standard residues; d marks the D form. Peptide text beside a SMILES is read from it. Ahppa(3S,4S) = O=C(C[C@H](O)[C@H](Cc1ccccc1)N[*:1])[*:2]; ACHPA = O=C(C[C@H](O)[C@H](CC1CCCCC1)N[*:1])[*:2]; Tic = O=C(O)[C@@H]1Cc2ccccc2CN1

Molecular target: T1, HIV protease (Human immunodeficiency virus type 1 group M subtype B, UniProt P04585)
T1 construct: HIV protease was expressed in E. coli and purified to ca. 50% purity; made in house; host or cells: E. coli
Test: Recombinant HIV Protease HPLC Assay
Assay type: biochemical
Conditions: recombinant HIV protease expressed in E. coli; substrate VSFNFPQITL-NH2; pH 6 buffer; 37° C. for 1 h; HPLC quantification
Text: The procedure is based on the capacity of the test compound to inhibit enzymatic cleavage by HIV protease of a decapeptide (the substrate) having an amino acid sequence which includes a known HIV protease cleavage site of the HIV polyprotein; see H. G. Krausslich et al., Proc. Natl. Acad. Sci. USA, 86, 807 (1989). Details of this assay together with the results obtained for exemplified peptides of formula 1 are described in the examples hereinafter.
Recombinant HIV Protease HPLC Assay
Enzyme: HIV protease was expressed in E. coli and purified to ca. 50% purity according to the procedure described by H.-G. Krausslich et al., Proc. Natl. Acad. Sci. U.S.A., 86, 807 (1989). The enzyme was stored as 10 μL aliquots at -70° C. The aliquots were diluted to 1/10th of the original concentration with buffer prior to use (enzyme working solution).
Substrate: VSFNFPQITL-NH2, MW 1164, see Krausslich et al., supra, was used as substrate. The substrate was made into 10 mM stock in DMSO and stored at -20° C. Prior to use, the stock was diluted with buffer to give a 400 μM solution substrate working solution.
Buffer: 2-(4-Morpholino)ethanesulfonic acid (50 mM), NaCl (25 mM) and EDTA (5 mM) was dissolved in distilled H2 O (90 mL) and the solution was adjusted to pH6 with concentrated aqueous NaOH. The latter solution was diluted to 100 mL with H2 O to give the buffer.
Procedure: (1) The test compound was dissolved in DMSO to give a solution having 40× the final concentration of the test compound in the assay mixture (see step 2) so that the amount of DMSO in the assay mixture was 5% (v,v) or less. (2) The assay mixture was prepared by mixing 10 μL of the substrate working solution, 0.5 μL of the solution of the test compound in DMSO from step 1, and 10 μL of the enzyme working solution. (3) The assay mixture was incubated at 37° C. for 1h. (4) The reaction was quenched by adding 100 μL of 2% aqueous TFA. (5) The substrate and products (i.e. VSFNF and PQITL-NH2) were separated by subjecting 100 μL of the quenched assay mixture to HPLC using Nucleosil ® C18 column with a 26-min linear gradient at 1 mL/min from 11% to 70% acetonitrile in H2 O with 0.05% aqueous TFA. Elution was monitored at 210 nm. (6) A control which was the assay mixture without the test compound, was subjected simultaneously to steps 3 to 5.
Inhibition Studies: Cleavage products and remaining parent substrate were quantified by either peak height or by integration of the appropriate HPLC peaks. Substrate conversion was calculated using the following relationship: [formula] Enzyme inhibition of the test compound was calculated as follows: [formula]
The concentration of the test compound which causes a 50% inhibition of the HIV-protease, i.e. the IC50, was determined as follows: The percent inhibition of the enzyme was determined for a minimum of three different concentrations of the test compound. Thereafter, the IC50 was determined graphically by plotting the percent inhibition of the substrate against the concentration of the test compound.

| Compound | IC50 [µM] |
| --- | --- |
| CC(C)C[C@H](NC(=O)C[C@H](O)[C@H](CC1CCCCC1)NC(=O)[C@H](C)NC(=O)[C@@H]1Cc2ccccc2CN1)C(=O)N[C@@H](Cc1ccccc1)C(=O)O [Example 14, THIQ-Ala-ACHPA-Leu-Phe-OH.HCl] (H-[Tic]A[ACHPA]LF-OH) | 0.2 |
| THIQ-Val-ACHPA-Ala-Phe-NH2.HCl [Example 7] | 0.017 |
| CC(C)C[C@H](NC(=O)C[C@H](O)[C@H](Cc1ccccc1)NC(=O)[C@@H](NC(=O)[C@@H]1Cc2ccccc2CN1)C(C)C)C(=O)N[C@@H](Cc1ccccc1)C(N)=O [Example 16, THIQ-Val-AHPPA-Leu-Phe-NH2.HCl] (H-[Tic]V[Ahppa(3S,4S)]LF-NH2) | 0.025 |
| THIQ-Val-Cha.psi.[CH2 NH]Leu-Leu-Phe-NH2.HCl [Example 20] | 0.08 |
| N-[N-[N-[N-[3-(1,2,3,4-Tetrahydroisoquinolyl)carbonyl]-L-alanyl]-4(S)-amino-3(S)-hydroxy-5-cyclohexylpentanoyl]-L-leucyl]-L-phenylalaninamide Hydrochloride [Example 1] | 0.09 |
